Data set [1] is described as follows: Stability of aqueous solution against heat and light. Type of data set: physicochemical.
In another data set the test system is β-adrenergic. Particulars: cited from earlier work.
Data set [2] has as its system Normal Intraocular Pressure. Kind of data set: Test Example 3: intraocular pressure, consecutive application for 5 days, pigmented rabbits. The format is in vivo. Particulars: 0.5% aqueous solution. Here is the method: Intraocular Pressure Reducing Activity of Amosulalol Hydrochloride by Consecutive Application for 5 Days on Normal Intraocular Pressure in Pigmented Rabbits
Eight (8) male pigmented rabbits weighing about 2 kg, after having been confirmed to be free from ocular abnormalities, were bred in a breeding room maintained at a temperature of 24± 4° C. and at a relative humidity of 55± 15%, while they were given solid food (Labo RG-RO, manufactured by Nihon Nohsan Kogyo K.K.) at a daily rate of 100 g per rabbit and allowed free access to tap water as drinking water.
For the 8 pigmented rabbits bred by the above procedure, 50 μl of 0.5% aqueous solution of amosulalol hydrochloride was applied to one eye, with 50 μl of physiological saline being given topically to the other. Intraocular pressure was measured before the first instillation and at regular intervals of 1 hour up to 8 hours after application on Days 1 and 5, and before the first instillation and 2 or 3 hours after application on Days 2, 3 and 4, respectively, with intraocular pressure additionally being measured 24 hours after the first instillation on Day 5.
The signs "a" and "c" designate physiological saline, 0.5% aqueous solution of amosulalol hydrochloride, respectively.

Data set [3] concerns Hypertensive Intraocular Pressure Induced by Water Loading. Kind of data set: Test Example 4: hypertensive intraocular pressure induced by water loading, white rabbits. Type of data set: in vivo. Particulars: 0.5% aqueous solution. As to the method:
Intraocular Pressure Reducing Activity of 0.5% Aqueous Solution of Amosulalol Hydrochloride on Hypertensive Itraocular Pressure Induced by Water Loading White Rabbits
With 5 male white rabbits weighing about 2 kg used as test animals, 50 μl of 0.5% aqueous solution of amosulalol hydrochloride was applied to one eye of each rabbit, with 50 μl of physiological saline being given to the other, and drinking water, 60 ml/kg (37° C.) was loaded by means of an oral probe 30 min later. Intraocular pressure was measured for both eyes using PTG before instillation as well as before water loading and 0.5, 1, 2 and 4 hours after the same.
FIG. 6 is a graph showing the intraocular pressure reducing activity of 0.5% aqueous solution of amosulalol hydrochloride on hypertensive intraocular pressure induced by water loading in white rabbits with time (hour) after instillation taken as abscissa and intraocular pressure (mmHg) as ordinate; each value in mean ± S.E. (number of cases is […]).

Data set [4] deals with Normal Intraocular Pressure. Kind of data set: Test Example 1 (1): intraocular pressure reducing activity on normal intraocular pressure, pigmented rabbits. The format is in vivo, pigmented rabbits (Dutch belted rabbits). As to the method:
Intraocular Pressure Reducing Activity of Amosulalol Hydrochloride on Normal Intraocular Pressure in Pigmented Rabbits Male pigmented rabbits (Dutch belted rabbits) weighing about 2 kg, after having been confirmed to be free from ocular abnormalities; were bred in a breeding room maintained at a temperature of 24± 4° C. and at a relative humidity of 55± 15%, while they were given solid food (Labo RG-RO manufactured by Nihon Nohsan Kogyo K.K.) at a daily rate of 100 g per rabbit and allowed free access to tap water as drinking water. As a test drug, amosulalol hydrochloride was processed into 0.05% (hereinafter, the term "%" is to be understood to designate "w/v %") and 1.0% aqueous solutions which were used in the test, and 0.5% timolol maleate ophthalmic solution [Timoptol (registered trademark): Ban-yu Pharmaceutical Co.] and physiological saline were used as a positive control drug and a control substance, respectively. (1) Measurement of intraocular pressure: Thirty two (32) rabbits were divided into four groups each consisting of 8 rabbits, and 50 μl of test drugs as well as the control drug and physiological saline were applied topically to one eye each of the individual rabbits, with the other being left untreated. Before instillation and 0.5, 1, 2, 3, 4, 6 and 8 hours after topical application,intraocular pressure for both of eyes of each rabbit was measured using a Pneumatonograph (manufactured by Alcon Co. Hereinafter referred to briefly as "PTG"). Shown in FIG. 1 are time-course changes of intraocular pressure taken with the eyes treated by instillation of each of the test drugs, control drug and physiological saline, with time (hour) after instillation taken as abscissa and intraocular pressure (mmHg as ordinate; each value in mean±S.E. (number of cases is 8). The signs "a", "b", "d" and "e" designate physiological saline, 0.05% aqueous solution of amosulalol hydrochloride, 1.0% aqueous solution of amosulalol hydrochloride, and 0.5% ophthalmic solution of timolol maleate, respectively.

In a further data set the test system is eyeball. Kind of data set: Test Example 7 (2)(f): optical microscope evaluation of a sagittal section of the eyeball. Type of data set: in vivo, Japanese white rabbits. Particulars: 1% and 0.5% ophthalmic solutions, 28 days. Here is the method:
(2) Ocular local toxicity test in rabbits of 1.0% and 0.5% ophthalmic solutions of amosulalol hydrochloride by consecutive instillation for 28 days:
With 15 male Japanese white rabbits divided into 3 groups each consisting of 5 rabbits, 1.0% and 0.5% ophthalmic solutions of amosulalol hydrochloride as well as physiological saline as a control were applied in one drop (0.05 ml) per time to the right eye of each rabbit alone, four times a day at a regular interval of 2.5 hours, for 28 days consecutively with the left eye being left untreated.
(f) Evaluation with an optical microscope of a sagittal section of the eyeball;
After completion of the instillation of 1.0% and 0.5% ophthalmic solutions of amosulalol hydrochloride, specimens for optical microscopy were prepared each having a sagittal section of the eyeball from 2 eyes each of the two groups to conduct microscopic examination of the eyelid, conjunctiva, cornea, anterior segment, iris, crystalline lens vitreous body, retinochoroid membrane, screla and optic nerve.

In the next data set the test system is pupil diameter. The data set can be described thus: Test Example 2 (2): pupil diameter, pigmented rabbits. Type of data set: in vivo, pigmented rabbits (Dutch belted rabbits). Particulars: 0.5% aqueous solution (FIG. 4), 0.5 to 6 hours. Here is the method:
Forty (40) male pigmented rabbits (Dutch belted rabbits) weighing about 2 kg, after having been confirmed to be free from ocular abnormalities, were bred in a breeding room maintained at a temperature of 24± 4° C. and at a relative humidity of 55± 15%, while they were fed solid food (Labo RG-RO, manufactured by Nihon Nohsan Kogyo K.K.) at a daily rate of 100 g per rabbit and allowed free access to tap water as drinking water. As a test drug, amosulalol hydrochloride was processed into 0.05%, 0.5% and 1.0% aqueous solutions which were used in the test, and 0.5% timolol maleate ophthalmic solution [Timoptol (registered trademark): Ban-yu Pharmaceutical Co.] and physiological saline were used as a positive control drug and a control substance, respectively. (2) Measurement of pupil diameter: With each of the rabbits as used under the above item (1), pupil diameter was measured for both eyes using a micrometer caliper, before instillation and 0.5, 1, 2, 3, 4, and 6 hours after topical application of the respective test drugs and physiological saline, respectively. […] The signs "a" and "c" designate physiological saline, 0.5% aqueous solution of amosulalol hydrochloride, respectively.

Each structure is given as a SMILES string.

As for `COc1ccccc1OCCNCC(O)c1ccc(C)c(S(N)(=O)=O)c1.Cl` (centres unmarked) [amosulalol hydrochloride, 5-[1-hydroxy-2-[2-(2-methoxyphenoxy)ethylamino]ethyl]-2-methylbenzenesulfonamide hydrochloride], the “stability against heat and light” value in data set [1] is “stable”. Moreover, the β-adrenergic blocking activity result with β-adrenergic was “exhibit both α-adrenergic and β-adrenergic blocking activities”. In data set [2] (Day 1), the “return of intraocular pressure to the initial value (time)” value came out at 24 h. In data set [2] (Day 1, 2 hours after the first instillation), the “maximum drop in intraocular pressure” value is recorded as 4.8 mmHg. Further, the “further decrease in intraocular pressure by second instillation” value in data set [2] (Day 1, second instillation 4 hours later) was “not found to bring about any further decrease in intraocular pressure”. In addition, the “decrease in intraocular pressure” value in data set [2] (Day 2, 2 hours after instillation) was “significant decrease in intraocular pressure”; in data set [2] (Day 3) it was “no significant intraocular pressure drop”; in data set [2] (Day 4), “significant decrease in intraocular pressure”; in data set [2] (Day 5, any measuring time) it was “almost the same degree of intraocular pressure decrease as on Day 1”. For the same molecule, the tachyphylaxis entry in data set [2] (three times a day for 5 days) was “free from tachyphylaxis”. In addition, the “increase in intraocular pressure after water loading” value in data set [3] (30 min after water loading, physiological saline 8.7 mmHg) is recorded as 3.4 mmHg. Moreover, in data set [3] (water loading), the “effect on increase in intraocular pressure compared with physiological saline” value is “significantly reduced the increase in intraocular pressure”. In addition, the “maximum decrease in intraocular pressure” value in data set [4] (0.05% aqueous solution, 2 hours after topical application) is recorded as 3.6 mmHg; in data set [4] (1.0% aqueous solution, 50 μl topical, 3 hours after instillation), 9.0 mmHg. The “decrease in intraocular pressure sustained until (time after instillation)” value in data set [4] (1.0% aqueous solution, sustained from 30 min after instillation) was found to be 6 h. Moreover, the “optical microscope evaluation of a sagittal section of the eyeball” value with eyeball is given as “no abnormalities”. The “change in pupil diameter” value in the data set with pupil diameter is listed as “no significant change in the pupil diameter”.

(Values after patent US5663205A, “Pharmaceutical composition for use in glaucoma treatment” (Senju Pharmaceutical Co. Ltd., priority 1992, dated 1997).)
